The values below come from patent US9790551B2, “Use of TRPC6 mRNA levels in peripheral blood cells for early detection/diagnosis of senile dementia” (Aging Wise Biotechnology, Inc., priority 2013, dated 2017).

The subject of series [1] is TRPC6 mRNA. The format is cell-based.
In another series the test system is γ-secretase. Conditions: phase 3 clinical trial, cited from earlier work.
In series [2] the test system is TRPC6 mRNA. As to the kind of experiment: TRPC6 mRNA in Jurkat cells after APOE-containing culture medium. The note with it: after 5 hr. The format is cell-based, human. As for the experimental part: (§1) The culture medium containing different APOE isoforms were added into the Jurkat cells (human T cell line from peripheral blood). The mRNA levels of TRPC6 and TRPC5 were detected after 5 hr (mean±SE, n=5).

The test system of series [3] is TRPC5 mRNA. As to the kind of experiment: TRPC5 mRNA in Jurkat cells after APOE-containing culture medium. The format is cell-based, human. The note with it: after 5 hr. How it is done: as §1
The test system of series [4] is TRPC6 mRNA. The experiment in a line: TRPC6 mRNA in rat neurons after APOE-containing culture medium supernatant. The format is cell-based. The note with it: rat neurons cultured in vitro for 8 days, after 2 hr. How it is done:
(§2) The culture medium supernatant containing different APOE isoforms were added into rat neurons cultured in vitro for 8 days. The mRNA levels of TRPC6 and TRPC5 were detected after 2 hr (mean±SE, n=8).

The test system of series [5] is TRPC5 mRNA. The experiment in a line: TRPC5 mRNA in rat neurons after APOE-containing culture medium supernatant. The note with it: rat neurons cultured in vitro for 8 days, after 2 hr. The format is cell-based. As for the experimental part: as §2
The test system of series [6] is Aβ levels in primary cultured rat cortical neurons. As to the kind of experiment: Aβ ELISA of medium, primary cultured rat cortical neurons electrotransfected with siRNA. The format is cell-based. The note with it: Table 6, 7 days after electrotransfection, control siRNA = 1. How it is done:
(§3) Upon collecting the culture medium of the cells, Aβ40 and Aβ42 levels were quantified with sandwich ELISA kit, respectively (purchased from Invitrogen). The forebrain of the mouse was dissected and separated, and then homogenized with GuHCL. After that, total Aβ was determined by ELISA. For determining TBST(Tris-Buffered Saline and 1% TritonX100, 1% SDS, 1% DOC) soluble and insoluble Aβ, upon TBST homogenation and centrifugation of the forebrain of the mouse, the supernatant was determined for TBST soluble Aβ by ELISA, and the precipitate was determined for TBST insoluble Aβ by ELISA upon another GuHCL homogenate.
Fetal rat was collected on the 17th day of SD rat pregnancy. Cortical neurons of the rat brains were separated, obtained, and electrotransfected by Nucleofector Device (Amaxa) with TRPC6 siRNA1 as set forth by SEQ ID NO.:12 (sense strand) and SEQ ID NO.:13 (anti-sense strand), TRPC6 siRNA2 as set forth by SEQ ID NO.:18 ([…], sense strand) and SEQ ID NO.:19 ([…], anti-sense strand), control siRNAs as set forth by SEQ ID NO.:14 (sense strand) and SEQ ID NO.:15 (anti-sense strand), and TRPC5 siRNA as set forth by SEQ ID NO.:20 ([…], sense strand) and SEQ ID NO.:21 ([…], anti-sense strand). 7 days after electrotransfection, Aβ levels in the medium were examined by ELISA.

In series [7] the test system is Aβ levels in HEK293APP stable cells. As to the kind of experiment: Aβ ELISA, HEK293APP stable cells treated with TAT fusion peptides. The format is cell-based. How it is done:
as §3
In this Example, the second transmembrane domain (487-507aa, TM2) was selected to fuse with cell penetrating peptide TAT and the fusion peptide TAT-TM2 and the mutant thereof TAT-TM2mut were obtained. Their effects on Aβ levels were examined in HEK293APP stable cells.
6.1.2 The Effect of Different Doses of Fusion Protein TAT-TM2 on Aβ Levels in HEK293APP Stable Cells were Determined.
To search for shorter fragments which could inhibit Aβ levels, TM2 was divided into N- and C-terminals and fused with TAT respectively. The effects of TAT-TM2-N, TAT-TM2-C and TAT-TM2-C mutant on Aβ levels in HEK293APP cells was examined.
For orientation: In an ELISA, binding on a coated surface is turned into a signal by an enzyme label.

In series [8] the test system is Aβ levels in APP/PS1 mice. As to the kind of experiment: Brain Aβ levels in APP/PS1 mice after intraperitoneal injection of peptide. The format is in vivo. The note with it: intraperitoneally injected, brain tissue 3 hours later. How it is done: 6. Construction of APP/PS1 AD Mouse Models • a) APP/PS1 mice (with B6C3 background) were purchased from Jackson laboratory (#004462). • b) Construction of TRPC6 transgenic mouse
as §3
TAT or TAT-TM2 was intraperitoneally injected into APP/PS1 mice, and brain tissue samples were prepared 3 hours later and the Aβ levels were determined: general method 8 (n=8)

Series [9] has as its system γ-secretase cleavage of C99. The experiment in a line: Aβ ELISA, C0S7C99 cells treated with peptide. The note with it: Table 11; C0S7-C99 stable cells, 5 um peptide for 12 h; TAT = 1. The format is cell-based. How it is done: (§4) C99 is the C-terminal 99 amino acids of APP and the direct substrate of γ-secretase. C0S7C99 cells were passaged in 12-well plate till the density approached 100%. Each well was treated with 5 um peptide for 12 h and the Aβ levels in the culture medium was determined with ELISA.

Series [10] concerns γ-secretase cleavage of C99. The experiment in a line: C99-GVP/UAS luciferase reporter system with peptide. The format is cell-based. Conditions: Table 11; luciferase activity; TAT = 1. How it is done: HEK293APP were transfected with C99-GVP/UASLuciferase, CTRL or TRPC6 plasmids, and were lysed 24 hours later. The luciferase activities were determined using the Luciferase assay system (purchased from Promega). β-gal was co-transfected to normalize the transfection efficiency.
as §4
A general note: A reporter such as luciferase makes a cellular process visible.

Series [11] relates to Aβ levels in primary cultured cortical neurons. The experiment in a line: Aβ levels in primary cultured cortical neurons treated with TAT-TM2. The format is cell-based. How it is done:
as §3
6.1.3 The Effect of the Fusion Peptide TAT-TM2 on Aβ Levels in Primary Cultured Cortical Neurons was Determined and the Results were Shown in FIG. 9c: […]

Series [12] relates to γ-secretase cleavage of Notch. The experiment in a line: NICD immunoblotting, Notch-transfected cells treated with peptide. The format is cell-based. The note with it: 5 um peptide for 12 hr. As for the experimental part:
Cells were passaged in 12-well plate till the density approached 80%, Each well was transfected with 1 ug Notch plasmid using Lipofectamine 2000. 24 hr later, cells were treated with 5 um peptide for 12 hr. The Notch protein expression was determined by immunoblotting. Wherein, NICD (notch intracellular domain) was the intracellular fragment produced by γ-secretase cleavage of NotchΔE-myc, reflecting the level of γ-secretase cleavage of Notch.
A general note: A western blot detects proteins with antibodies after separation by electrophoresis.

[13] abbreviates: Table 5, HEK293APP stable cells, TAT control line, concentration not given.
Setting [14] is: Table 8, HEK293APP stable cells, TAT = 1.
[15] abbreviates: Table 9, TAT-TM2 variants, HEK293APP cells, TAT = 1.
The mark [16] stands for this setting: Table 5, HEK293APP stable cells, 2 uM, TAT = 1.
Where [17] appears, read: Table 5, HEK293APP stable cells, 5 uM, TAT = 1.
[18] abbreviates: Table 5, HEK293APP stable cells, 10 uM, TAT = 1.

Take `[Cl-].[Cl-].[Co+2]` [CoCl2]: the “TRPC6 expression (mRNA)” value in the series with TRPC6 mRNA [1] is recorded as “could upregulate TRPC6 expression”.

Regarding `CC(C)[C@H](O)C(=O)N[C@@H](C)C(=O)N[C@@H]1C(=O)N(C)CCc2ccccc21` [Semagacestat], in the series with γ-secretase (AD patients), the adverse gastrointestinal reaction result is “increased” and the “risk of skin cancer” value is “increased”. The “cognitive function of the AD patients” value in the series on γ-secretase is on record as “declined”.

Turning to “APOE4: culture medium supernatant containing APOE4 isoform”, the “TRPC6 mRNA levels” value is on record as “could not affect TRPC6 mRNA levels” in the series with TRPC6 mRNA [2] and “could not affect the TRPC6 mRNA levels” in the series on TRPC6 mRNA [4]. The “TRPC5 mRNA levels” value was “could not affect TRPC5 mRNA levels” with TRPC5 mRNA [3] and “could not affect the TRPC5 mRNA levels” in the series with TRPC5 mRNA [5].

In [6], “Control siRNA: control siRNAs, SEQ ID NO.:14 (sense strand) and SEQ ID NO.:15 (anti-sense strand) (sense GCACACCGAAGGAUAUUCUTT; antisense AGAAUAUCCUUCGGUGUGCTT; chemistry not given here)” showed an Aβ40 of 1 and an Aβ42 of 1.

Turning to “TAT (GRKKRRQRRRC; fusion peptide) [reference compound]”, the Aβ40 in series [7] (setting [13]) worked out at 1; in series [7] (setting [14]), 1; in series [7] (setting [15]), 1; in series [8], 169.70 ± 61.78 pg/mg; in series [9], 1. Further, the Aβ42 in [7] (setting [13]) is recorded as 1; in series [7] (setting [14]) it was 1; in [7] (setting [15]) it was 1; in series [8], 492.60 ± 157.70 pg/mg; in series [9] it was 1. Besides, the “C99-GVP/UAS luciferase reporter system” value in [10] came out at 1.

Take “TAT-TM2: fusion peptide of TRPC6 second transmembrane domain (487-507aa) and TAT, SEQ ID NO.:17, TSCFSWMEMLIISWVIGMIWAGRKKRRQRRRC (fusion peptide)”: the Aβ40 in [7] (setting [16]) is on record as 0.6825 ± 0.0498; in [7] (setting [17]), 0.4863 ± 0.05919; in series [7] (setting [18]) it was 0.2481 ± 0.0763; in [7] (setting [14]), 0.39 ± 0.03; in series [8] it was 91.12 ± 43.56 pg/mg; in series [9], 0.39 ± 0.11. For the same compound, the Aβ42 was found to be 0.6244 ± 0.03189 in [7] (setting [16]); 0.3255 ± 0.02046 in series [7] (setting [17]); 0.2214 ± 0.01597 in series [7] (setting [18]); 0.40 ± 0.06 in series [7] (setting [14]); 277.40 ± 124.10 pg/mg in [8]; 0.58 ± 0.04 in [9]. In addition, the “Aβ40, of the control group” value in series [11] is listed as 83%. In addition, in series [11], the “Aβ42, of the control group” value turned out to be 68%. In addition, the “C99-GVP/UAS luciferase reporter system” value in series [10] turned out to be 0.82 ± 0.02. For the same compound, the “NICD level (γ-secretase cleavage of NotchΔE-myc)” value in [12] is recorded as “did not affect NICD level”.

For “TRPC5 siRNA: TRPC5 siRNA, SEQ ID NO.:20 AACGCCUUCUCCACGCUCUUU and SEQ ID NO.:21 AAAGAGCGUGGAGAAGGCGUU (listed as RNA, chemistry not given here)”, in series [6], the Aβ40 amounted to 0.96 ± 0.09 and the Aβ42 is on record as 1.03 ± 0.02.

Regarding “TRPC6 siRNA-1: TRPC6 siRNA, SEQ ID NO.:12 (sense strand) and SEQ ID NO.:13 (anti-sense strand) (sense CGGUGGUCAUCAACUACAATT; antisense UUGUAGUUGAUGACCACCGTT; chemistry not given here)”, in series [6], the Aβ40 came to 1.49 ± 0.16 and the Aβ42 came out at 1.89 ± 0.21.

In series [6], “TRPC6 siRNA-2: TRPC6 siRNA, SEQ ID NO.:18 GCUUGACUUUGGAAUGUUATT and SEQ ID NO.:19 UAACAUUCCAAAGUCAAGCTT (chemistry not given here)” had an Aβ40 of 1.33 ± 0.13 and an Aβ42 of 1.63 ± 0.17.
